Test results as given in a melting point compilation (Tetko et al.; mined from patent text by program, amines drawn as free bases though some values may be those of a salt).

SMILES	melting point [°C]
CCN1CC(=O)N(c2ccc(Cl)cc2Cl)C1=S	144 to 146
CC(=O)NC1CCCCC1Sc1ccccc1 (stereo unspecified)	132 to 133
CCOc1cc(OCCCc2cn(-c3ccc(C(F)(F)F)cn3)nc2OCC)ccc1CCC(=O)O	96 to 97
OC1(C=Cc2ccc(-c3cccnc3)cc2)CN2CCC1CC2 (stereo unspecified)	195 to 198
Cc1sc(CCc2ccc(CO)cc2)nc1-c1ccccc1	62 to 63
[O-][N+]1=C(c2ccccc2)c2cc(C(F)(F)F)ccc2-n2c(CBr)nnc2C1	185 to 210
COc1cc(COc2nn(Cc3ccccc3)cc2C=O)ccc1OCc1nc(-c2ccccc2)oc1C	151 to 152
CCN(CC)C(=S)n1cnc(S(=O)(=O)CC2CCCC2)n1	78
CC(C)(C)NCC(O)c1ccc(O)c(C(O)CO)c1 (stereo unspecified)	190 to 192
COc1ccc(C2(O)c3ccccc3-c3ccccc32)cc1	91 to 93
C[C@H](C(=O)c1ccccc1F)n1ccn(-c2ccc(OC(F)(F)C(F)F)cc2)c1=O	78 to 79
CCn1c(=O)c2c(nc(/C=C/c3ccc(OC)c(C)c3)n2C)n(CC)c1=O	176 to 178
CCOC(=O)N1CCC2(CC1)Oc1ccccc1C2n1cccc1 (stereo unspecified)	132 to 133
O=C1CCN(Cc2ccc([N+](=O)[O-])cc2)CC1C(c1ccc(F)cc1)c1ccc(F)cc1 (stereo unspecified)	118 to 119
O=C(O)c1ccc2cc(OCCCCCCc3cccc(OCc4ccccc4)c3OCc3ccccc3)ccc2c1	66 to 68
CC(C)=CC(O)C(Cl)(Cl)Cl (stereo unspecified)	83
CC(C)OCc1cnc2c(N)cccc2c1Cl	94 to 95
c1ccc(C2CCN=C(c3csnn3)N2)cc1 (stereo unspecified)	158
N#Cc1ccc(C(=C2C3CC4CC(C3)CC2C4)c2ncc[nH]2)cc1	155

SMILES	melting point [°C]
Cc1nc(Nc2nc3cccc(C)c3[nH]2)nc(O)c1CC(=O)O	> 300
Cc1nc(-c2cnc3[nH]cc(C(=O)N[C@@H](C(=O)N4CC(C#N)C4)C(C)(C)C)c3n2)cn1-c1cccc(F)c1	171 to 176
CC1CCC(=O)N1CC(=O)NCCN1C(C)CCCC1C (stereo unspecified)	115 to 116
O=C1CCC(N2Cc3c(OCc4cc(CN5CCOCC5)no4)cccc3C2=O)C(=O)N1 (stereo unspecified)	228 to 230
CN(C1CCS(=O)(=O)CC1)S(=O)(=O)c1ccc(Nc2ccnc(Nc3ccc(F)cc3)n2)cc1	252
CC1CCN(C(=O)[C@H](CCCSc2ccccn2)NS(=O)(=O)c2ccc3ccccc3c2)CC1	131 to 132
CCc1nccn1Cc1ccc2c(c1)-c1[nH]nc(-c3ccsc3)c1C2	238 to 239
Cc1oc(-c2ccccc2)nc1CCc1ccc(/C=C/C=C/C=O)cc1	107 to 108
O=C(O)C(Cc1ccc(OCCn2c(-c3ccccc3)nc3ccccc32)cc1)n1cccc1 (stereo unspecified)	210 to 212
N#Cc1ccc(-c2cn(-c3ccc(Br)cc3)c(C(=O)O)c2C(=O)O)cc1	217 to 221
CC(=O)N1CCCC2=C1CCc1cc(Cl)c(Cl)cc12	146 to 148
CCCCCCCCCCCCCCCCCCOC(=O)Cc1cc(C(C)(C)C)c(O)c(C)c1C	79 to 81
COc1cc(Oc2ccc(S(C)(=O)=O)nc2)cc2cc(C3=NCC(CC(=O)N(C)C)S3)[nH]c12 (stereo unspecified)	206 to 207
CC(=O)OCCn1ccc(=O)c(O)c1Cc1ccccc1	140 to 141
COc1ccc2c(c1)CC(Nc1ccc(OCc3ccccc3)cc1)C2 (stereo unspecified)	55 to 57
O=C(OCc1ccccc1)C(CO)N(C(=O)OCc1ccccc1)C(=O)c1ccccc1 (stereo unspecified)	94 to 95
CCn1cc(C(=O)NCCCN(C)C)c(=O)c2ccc(I)cc21	161 to 162
CC(=O)Nc1nnc(S(=O)(=O)Cc2ccccc2)o1	245 to 248

Second part, the compound after the results:

melting point [°C]	SMILES
137 to 141	CC(C)(C)OC(=O)N1CCC(c2nc3cc(-c4ccc(C#N)cc4)ccc3o2)CC1
> 250	CCOC(=O)c1c(Cl)nc2cc(F)c(C)cc2c1CCl
64 to 66	CCOC(=O)c1c(C(F)(F)F)nc(C(F)F)c(C(=O)OC)c1NCC(F)(F)F
155 to 156	FC(F)(F)c1cc(N2CCN(Cc3n[nH]c4ccccc34)CC2)cc(C(F)(F)F)c1
105 to 106	CCC(C)N1C(=O)c2ccc(C)nc2C1=O (stereo unspecified)
190 to 192	CC1CSC2=C(O1)c1cc(-c3ccccc3)ccc1C(=O)C2=O (stereo unspecified)
85 to 89	CC(C)(C)C(=O)c1occc1C(=O)O
44 to 45	CCCCC(C)(OC)C(O)C=CC1C(O)CC(=O)C1CCCCCCC(=O)OC (stereo unspecified)
128 to 133	Oc1ccc(P(c2ccc(O)cc2)c2ccc(O)cc2)cc1
55.5 to 56.5	N#CC1(N2C(=O)C3=C(CCCC3)C2=O)CCCCC1
187	CNc1ccc(C(=O)Nc2ccccc2[N+](=O)[O-])cc1
114 to 115	N#CCCN(N)c1nc2cccc(Cl)c2o1
145 to 147	CN(CC(C)(C)c1ccc(Cl)c(Cl)c1)C(=O)Nc1c(F)cc(F)cc1CCc1cc(C(C)(C)C)c(O)c(C(C)(C)C)c1
228 to 230	Cc1[nH]c(=O)c(C#N)cc1-c1ccccc1OCC(C)C(=O)O (stereo unspecified)
84 to 85	CC1(COc2cccc(-c3noc4ccsc34)c2)CO1 (stereo unspecified)
180 to 183	CCCCOC(=O)NC(=O)C1c2ccccc2Oc2ccccc21
99 to 100	CC(C)(C)N(C(=O)C(O)(C(=O)O)c1ccccc1)C(C)(C)C (stereo unspecified)

melting point [°C]	SMILES
120	O=S(=O)(c1ccc(Cl)cc1)N1CCCC1c1ccsc1 (racemic)
129 to 130	CCOc1cc(CCCC2OC(=O)NC2=O)ccc1OCc1nc(-c2ccccc2)oc1C (stereo unspecified)
61 to 63	CC1CCCc2cc([N+](=O)[O-])cnc21 (stereo unspecified)
169 to 170	CSc1ccc(C(=O)Nc2ccccc2)cc1Nc1cccc(C(F)(F)F)c1
264 to 267	CCc1nc2cc(OC)c(OC)cc2c(-c2ccc(OC)c(OC)c2)c1C(=O)O
134 to 135	Cc1ccc2oc(C(O)[C@H](C)NC(=O)OCc3ccccc3)nc2c1 (stereo partly specified)
116 to 118	COc1ccc(C(=C(CCBr)c2ccccc2)c2ccccc2)cc1
215	O=C(Cl)c1c(Br)c(Br)c([N+](=O)[O-])c2c1OCCO2
130 to 132	C=CCOn1c(=O)c2cc(F)c(F)cc2n(Cc2ccccc2)c1=O
100 to 101	CC1(C)CC(=C(c2ccc(F)cc2)c2ccc(OCC#N)cc2)CC(C)(C)C1
217 to 219	O=C(Cc1ccc(C(F)(F)F)cc1)NCc1ccc2c(c1)CN(C1CCC(=O)NC1=O)C2=O (stereo unspecified)
126	CCCCNC(=O)N(C)c1cccc(-c2ccc(C=C(OCC)C(=O)O)cc2)c1
137	COc1ccc(-c2onc3ccc(Br)cc23)cc1
98 to 100	O=C(O)CC1=C(Cc2ccc3c(Cl)cccc3c2)C(=O)CCC1
189 to 191	O=S1(=O)N=CN(C2CCCC2)c2cc(Cl)c(Cl)cc21
155 to 159	CNS(=O)(=O)/C=C/c1ccc2c(c1)c(C1CCN(C)CC1)cn2C
186	CCCC1(C)C(=O)N(CC(=O)Nc2c(C(C)C)cccc2C(C)C)C(=O)N1c1ccc(C)cc1 (stereo unspecified)
